In general, Ki refers to a measure of affinity in units of concentration, obtained from inhibition or displacement. A higher Ki goes with lower affinity.

We go through three compounds from patent US4713372A, “2-chloropentostatin compound having adenosine diaminase inhibitory activity” (Warner-Lambert Company, priority 1985, dated 1987).

In series [1] the test system is Streptococcus faecalis 05045. As to the kind of experiment: Agar disc diffusion, zone of inhibition vs. Streptococcus faecalis 05045. The series is classed as cell-based. The following applies: Enterococcus faecalis, 12.7 mm disc, 37°, overnight, read-out: Zone diameter. The procedure: Paper disks (12.7 mm in diameter) impregnated with an aqueous solution containing varying amounts of 2'-chloropentostatin were placed on a layer of agar containing AM-10 assay medium (Table 4) and inoculated with Streptococcus faecalis 05045. After incubation at 37° overnight the following zones of inhibition were observed: […]

The target in series [2] is T1, adenosine deaminase (Homo sapiens, UniProt P00813).
T1 sequence (P00813 1-363): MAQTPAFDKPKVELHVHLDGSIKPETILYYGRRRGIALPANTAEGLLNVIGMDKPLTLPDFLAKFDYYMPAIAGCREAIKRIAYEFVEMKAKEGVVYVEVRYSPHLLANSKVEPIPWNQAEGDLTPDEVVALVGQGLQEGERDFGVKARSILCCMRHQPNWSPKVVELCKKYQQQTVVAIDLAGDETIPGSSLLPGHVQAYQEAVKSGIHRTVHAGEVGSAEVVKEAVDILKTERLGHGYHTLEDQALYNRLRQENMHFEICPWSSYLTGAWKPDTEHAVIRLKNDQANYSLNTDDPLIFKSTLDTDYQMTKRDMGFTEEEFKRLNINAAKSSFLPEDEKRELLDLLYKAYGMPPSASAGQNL
As to the kind of experiment: biochemical. The procedure:
The potency of 2'-chloropentostatin as an adenosine deaminase inhibitor was determined using the following methods. The velocity (in moles/minute/ml) of the reaction of adenosine deaminase with adenosine was measured for several concentrations of the enzyme in the presence of various concentrations of the inhibitor, 2'-chloropentostatin. The data has been plotted in FIG. 1 in the form of an Ackerman-Potter plot (see W. W. Ackerman and V. R. Potter, Proc. Soc. Exp. Biol. Med., 72:1 (1949)).
The values of Vo /Vi =2 for each curve yield the I50 for the enzyme inhibitor at each substrate concentration. These I50 values have been plotted versus substrate concentration in FIG. 3.

In series [3] the test system is DNA viruses, especially herpes and vaccinia viruses. The conditions noted are these: U.S. Pat. No. 3,616,208; mammals; cited from earlier work.
Series [4] addresses T1, adenosine deaminase. The conditions noted are these: cited from earlier work.
Series [5] concerns the target T1, adenosine deaminase. The conditions noted are these: prior patents, in words; cited from earlier work.

`OC[C@H]1O[C@@H](n2cnc3c2N=CNC[C@H]3O)[C@H](Cl)[C@@H]1O` [2'-chloropentostatin, (R)-3-(2-chloro-2deoxy-beta-D-ribofuranosyl)-3,6,7,8-tetrahydroimidazo[4,5-d][1,3]diazepin-8-ol]: the zone of inhibition at 0.2 µg/mL in series [1] (0.2 μg/ml) turned out to be 40 mm. Also, in series [1] (2 μg/ml), the zone of inhibition at 2 µg/mL was 47 mm. Also, in series [1] (20 μg/ml), the zone of inhibition at 20 µg/mL was 55 mm. Moreover, the zone of inhibition at 200 µg/mL in series [1] (200 μg/ml) amounted to 61 mm. Further, the zone of inhibition at 2000 µg/mL in series [1] (2000 μg/ml) was 64 mm. For the same compound, the Ki on adenosine deaminase [2] turned out to be 0.1 nM. For the same compound, the “type of inhibition of adenosine deaminase” value at adenosine deaminase [2] (Ackerman-Potter plot, FIG. 1) is recorded as “"tight-binding" or "pseudo-irreversible" inhibitor”.
In the case of `Nc1ncnc2c1ncn2[C@@H]1O[C@H](CO)[C@@H](O)[C@@H]1O` [9-(beta-D-arabinofuranosyl)adenine], the “treatment of DNA viruses” value in series [3] is listed as “useful agent for the treatment of DNA viruses”. In addition, on adenosine deaminase [4], the “biological efficacy, limitation by deamination/deactivation in vivo” value is listed as “greatly diminished by the rapid deamination”.
In the case of `OC[C@H]1O[C@@H](n2cnc3c2N=CNC[C@H]3O)[C@H](O)[C@@H]1O` [coformycin, (R) -3-(beta-D-ribofuranosyl)-3,6,7,8-tetrahydroimidazo[4,5-d][1,3]diazepin-8-ol], at adenosine deaminase [5], the “inhibition of adenosine deaminase” value is given as “potent inhibitors of adenosine deaminase”.
